In experiment [1] the test system is mexB (PA) strain. Put plainly: Combinational effect with antibacterial agent against Pseudomonas aeruginosa (Test Examples 2 and 4): mexB (PA) strain with LVFX, TC or AZT at 1/4 MIC, EC99. It is filed as cell-based. The conditions noted are these: for EC99, mexB (PA), AZT / EC99, mexB (PA), LVFX / EC99, mexB (PA), TC: Table 52, Test Example 2, 16 to 20 hours culture, OD595; for EC99, mexB (PA), AZT / EC99, combinational effect with AZT, mexB (PA): combined with AZT at 1/4 MIC; for EC99, mexB (PA), LVFX / EC99, combinational effect with LVFX, mexB (PA): combined with LVFX at 1/4 MIC; for EC99, mexB (PA), TC / EC99, combinational effect with TC, mexB (PA): combined with TC at 1/4 MIC; for EC99, combinational effect with AZT, mexB (PA) / EC99, combinational effect with LVFX, mexB (PA) / EC99, combinational effect with TC, mexB (PA): mexB (PA) strain, Test Example 4. In outline: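 P. aeruginosa mexB (PA) strain, lacking MexCD-OprJ, MexEF-OprN and MexXY and overexpressing MexAB-OprM, grown 16–20 h in CAMHB (10^4–5 CFU/well) with LVFX, TC or AZT at ¼ MIC plus test compound at 0–800 μM. Growth read as OD595; EC99 is the lowest compound concentration giving ≥99% growth inhibition.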

The subject of experiment [2] is S-3769 strain. Put plainly: Combinational effect with antibacterial agent against Pseudomonas aeruginosa (Test Examples 2 and 4): S-3769 strain with AMK or GM at 1/4 MIC, EC99. It is filed as cell-based. The conditions noted are these: for EC99, S-3769 strain, AMK / EC99, S-3769 strain, GM: Table 52, Test Example 2, 16 to 20 hours culture, OD595; for EC99, S-3769 strain, AMK / EC99, combinational effect with AMK, S-3769 strain: combined with AMK at 1/4 MIC; for EC99, S-3769 strain, GM / EC99, combinational effect with GM, S-3769 strain: combined with GM at 1/4 MIC; for EC99, combinational effect with AMK, S-3769 strain / EC99, combinational effect with GM, S-3769 strain: Test Example 4. In outline: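 P. aeruginosa S-3769 (clinical isolate, MexY overexpressed) grown 16–20 h in CAMHB, 10^4 to 5 CFU/well, with AMK or GM at ¼ MIC plus test compound 0–800 μM. Growth read as OD595; EC99 is the lowest compound concentration giving ≥99% growth inhibition.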

The structures appear in SMILES notation. Where a name gives a salt, the structure may show the parent alone.

Consider `N[C@@H](C(=O)N1CCN(Cc2scc3c2OCCO3)CC1)C1CCN(CCc2cc(Cl)ccc2-c2ccccc2)CC1` [Example 11, Hydrobromide of (R)-2-amino-2-(1-(2-(4-chloro-[1,1′-biphenyl]-2-yl)ethyl)piperidin-4-yl)-1-(4-((2,3-dihydrothieno[3,4-b][1,4]dioxin-5-yl)methyl)piperazin-1-yl)ethan-1-one], for which, in experiment [1], the “EC99, mexB (PA), AZT” value was “B (25 μM<EC99≤100 μM)”; the “EC99, mexB (PA), LVFX” value is given as “B (25 μM<EC99≤100 μM)”; the “EC99, mexB (PA), TC” value is listed as “B (25 μM<EC99≤100 μM)”. Moreover, in experiment [2], the “EC99, S-3769 strain, AMK” value is reported as “B (25 μM<EC99≤100 μM)” and the “EC99, S-3769 strain, GM” value is “A (12.5 μM<EC99≤25 μM)”.
As for `CCOc1cccc(F)c1CN1CCN(C(=O)[C@H](N)C2CCN(CCc3cc(Cl)ccc3-c3coc4ccccc34)CC2)CC1` [Example 549, Hydrobromide of (R)-2-amino-2-(1-(2-(benzofuran-3-yl)-5-chlorophenethyl)piperidin-4-yl)-1-(4-(2-ethoxy-6-fluorobenzyl)piperazin-1-yl)ethan-1-one], in experiment [1], the “EC99, combinational effect with AZT, mexB (PA)” value (from here on “EC99 … with AZT, mexB (PA)”) is recorded as “A (12.5 μM<EC99≤25 μM)”; the “EC99, combinational effect with LVFX, mexB (PA)” value (shortened to “EC99 … with LVFX, mexB (PA)”) was “A (12.5 μM<EC99≤25 μM)”; the “EC99, combinational effect with TC, mexB (PA)” value (“EC99 … with TC, mexB (PA)” for short) is reported as “A (12.5 μM<EC99≤25 μM)”. Further, in experiment [2], the “EC99, combinational effect with AMK, S-3769 strain” value (from here on “EC99, combinational effect with AMK”) is listed as “A (12.5 μM<EC99≤25 μM)” and the “EC99, combinational effect with GM, S-3769 strain” value (from here on “EC99, combinational effect with GM”) is “A (12.5 μM<EC99≤25 μM)”.
Turning to `CCOc1cccc(F)c1CN1CCN(C(=O)[C@H](N)C2CCC(N(C)Cc3ccccc3)CC2)CC1` (stereo partly drawn) [Example 570, Hydrobromide of (R)-2-amino-2-(4-(benzyl(methyl)amino)cyclohexyl)-1-(4-(2-ethoxy-6-fluorobenzyl)piperazin-1-yl)ethan-1-one], in experiment [1], the “EC99 … with AZT, mexB (PA)” value is “C (100 μM<EC99)”; the “EC99 … with LVFX, mexB (PA)” value is listed as “C (100 μM<EC99)”; the “EC99 … with TC, mexB (PA)” value was “C (100 μM<EC99)”. Besides, in experiment [2], the “EC99, combinational effect with AMK” value was “B (25 μM<EC99≤100 μM)” and the “EC99, combinational effect with GM” value is listed as “B (25 μM<EC99≤100 μM)”.
With `CSc1ccccc1CN1CCN(C(=O)[C@H](N)C2CCN(CCc3cc(Cl)ccc3-c3cccc(F)c3)CC2)CC1` [Example 551, Hydrobromide of (R)-2-amino-2-(1-(2-(4-chloro-3′-fluoro-[1,1-biphenyl]-2-yl)ethyl)piperidin-4-yl)-1-(4-(2-(methylthio)benzyl)piperazin-1-yl)ethan-1-one], in experiment [1], the “EC99 … with AZT, mexB (PA)” value is “S (EC99≤12.5 μM)”; the “EC99 … with LVFX, mexB (PA)” value is “S (EC99≤12.5 μM)”; the “EC99 … with TC, mexB (PA)” value is “S (EC99≤12.5 μM)”. Further, in experiment [2], the “EC99, combinational effect with AMK” value is listed as “B (25 μM<EC99≤100 μM)” and the “EC99, combinational effect with GM” value is “A (12.5 μM<EC99≤25 μM)”.
In the case of `CCOc1cccc(F)c1CN1CCN(C(=O)[C@H](N)C2CCN(CCc3cc(Cl)ccc3-c3ccc(C)cc3)CC2)CC1` [Example 69, Hydrobromide of (R)-2-amino-2-(1-(2-(4-chloro-4′-methyl-[1,1′-biphenyl]-2-yl)ethyl)piperidin-4-yl)-1-(4-(2-ethoxy-6-fluorobenzyl)piperazin-1-yl)ethan-1-one], in experiment [1], the “EC99, mexB (PA), AZT” value is “C (100 μM<EC99)”; the “EC99, mexB (PA), LVFX” value is “C (100 μM<EC99)”; the “EC99, mexB (PA), TC” value was “B (25 μM<EC99≤100 μM)”. In addition, in experiment [2], the “EC99, S-3769 strain, AMK” value is “S (EC99≤12.5 μM)” and the “EC99, S-3769 strain, GM” value is given as “S (EC99≤12.5 μM)”.
Take `CCOc1cccc(F)c1CN1CCN(C(=O)CN2CCC(CN)(CCc3ccccc3)CC2)CC1` [Example 425, hydrobromide of 2-(4-(aminomethyl)-4-phenethylpiperidin-1-yl)-1-(4-(2-ethoxy-6-fluorobenzyl)piperazin-1-yl)ethan-1-one]: in experiment [1], the “EC99, mexB (PA), AZT” value is “C (100 μM<EC99)”; the “EC99, mexB (PA), LVFX” value is on record as “C (100 μM<EC99)”; the “EC99, mexB (PA), TC” value is “C (100 μM<EC99)”. In experiment [2], the “EC99, S-3769 strain, AMK” value is recorded as “B (25 μM<EC99≤100 μM)” and the “EC99, S-3769 strain, GM” value is recorded as “B (25 μM<EC99≤100 μM)”.

Values taken from patent US20250326744A1, “PIPERAZINE DERIVATIVE OR SALT THEREOF, AND PHARMACEUTICAL COMPOSITION” (priority 2022, published 2025).
